Test results published in ChEMBL document CHEMBL5096235, “In Silico Exploration and Biological Evaluation of Bispecific Peptides Derived from Anti-HER2 Antibodies and Peptide-Camptothecin Conjugates for HER2-Positive Breast Cancer” (J Med Chem, 2022).
The source made the active and inactive calls. No cut-off for these calls is given here. Residues, ends and D or L forms follow the SMILES beside them. *: point of attachment. S(CH2)2OCO2(CPT-20-yl) = CC[C@@]1(OC(=O)OCCS*)C(=O)OCc2c1cc1n(c2=O)Cc2cc3ccccc3nc2-1

Assays:
[1] = target: T1, Receptor tyrosine-protein kinase erbB-2 (Homo sapiens, UniProt P04626); assay: Binding affinity to HER2 in HER-positive human SK-BR-3 cells assessed as increase in fluorescence intensity at 25 uM by Hoechst 33342 staining based confocal microscopic analysis; type: cell-based
T1 sequence (P04626 whole entry): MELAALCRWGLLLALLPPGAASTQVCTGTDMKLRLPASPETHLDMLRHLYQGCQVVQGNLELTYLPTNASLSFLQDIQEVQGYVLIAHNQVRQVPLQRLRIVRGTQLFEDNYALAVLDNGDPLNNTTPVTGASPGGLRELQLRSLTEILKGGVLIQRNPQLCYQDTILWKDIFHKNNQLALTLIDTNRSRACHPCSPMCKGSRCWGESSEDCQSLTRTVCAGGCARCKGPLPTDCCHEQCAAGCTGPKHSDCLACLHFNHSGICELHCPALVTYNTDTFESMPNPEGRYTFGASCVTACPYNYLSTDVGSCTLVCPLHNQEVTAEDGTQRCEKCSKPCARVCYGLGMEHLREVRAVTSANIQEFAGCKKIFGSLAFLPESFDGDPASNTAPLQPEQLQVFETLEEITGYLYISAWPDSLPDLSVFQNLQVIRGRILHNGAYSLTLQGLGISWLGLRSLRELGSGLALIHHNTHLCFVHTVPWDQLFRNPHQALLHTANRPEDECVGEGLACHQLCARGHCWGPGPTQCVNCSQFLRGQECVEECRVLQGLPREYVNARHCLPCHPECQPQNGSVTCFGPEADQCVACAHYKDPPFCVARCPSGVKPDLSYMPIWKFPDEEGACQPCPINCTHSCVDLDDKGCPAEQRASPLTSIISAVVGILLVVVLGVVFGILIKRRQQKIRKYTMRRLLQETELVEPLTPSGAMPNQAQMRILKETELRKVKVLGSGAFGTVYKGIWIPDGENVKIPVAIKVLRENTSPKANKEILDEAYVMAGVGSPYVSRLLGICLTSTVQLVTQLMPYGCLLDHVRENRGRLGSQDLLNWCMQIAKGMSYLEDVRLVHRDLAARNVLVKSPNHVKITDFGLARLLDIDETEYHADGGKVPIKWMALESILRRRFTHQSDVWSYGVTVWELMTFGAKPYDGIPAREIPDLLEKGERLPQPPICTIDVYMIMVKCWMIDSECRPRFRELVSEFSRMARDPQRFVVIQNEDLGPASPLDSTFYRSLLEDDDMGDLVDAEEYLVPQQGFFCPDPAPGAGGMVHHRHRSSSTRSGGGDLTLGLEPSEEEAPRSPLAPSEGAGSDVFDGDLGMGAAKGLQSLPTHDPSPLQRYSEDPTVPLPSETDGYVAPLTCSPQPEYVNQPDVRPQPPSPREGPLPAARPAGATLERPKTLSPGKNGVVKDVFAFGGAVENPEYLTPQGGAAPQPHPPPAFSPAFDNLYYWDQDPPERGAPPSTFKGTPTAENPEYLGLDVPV

[2] = Toxicity in nude mouse xenografted with human SK-BR-3 cells assessed as effect on creatinine level at 8 micromol/kg, iv administered every 3 days for 14 days; type: organism-based; settings: in vivo, 336 h, dose 8 µmol/kg, time 14 day
[3] = Toxicity in nude mouse xenografted with human SK-BR-3 cells assessed as heart damage at 8 micromol/kg, iv administered every 3 days for 14 days by H and E staining based analysis; type: organism-based; settings: in vivo, 336 h, dose 8 µmol/kg, time 14 day
[4] = Metabolic stability in Sprague-Dawley rat plasma assessed as drug degradation incubated for 120 mins by LC-MS/MS analysis; type: ADME, cell-free; settings: 2 h
[5] = target: T1, Receptor tyrosine-protein kinase erbB-2; assay: Binding affinity to recombinant HER2 (unknown origin) assessed as dissociation constant by SPR analysis
SK-BR-3 [6] = assay: Induction of cell cycle arrest in human SK-BR-3 cells assessed as accumulation of cells at S phase at 2 uM incubated for 24 hrs by flow cytometry analysis (reference value: 23%); type: functional
SK-BR-3 [7] = assay: Induction of apoptosis in human SK-BR-3 cells assessed as late apoptotic cells at 2 uM incubated for 24 hrs by Annexin V-FITC/PI staining based flow cytometry analysis (Rvb= 5.02%); type: functional
[8] = […] in nude mouse xenografted with human SK-BR-3 cells assessed as effect on aspartate aminotransferase level at 8 micromol/kg, iv administered every 3 days for 14 days; type: organism-based; settings: in vivo, 336 h, dose 8 µmol/kg, time 14 day
SK-BR-3 [9] = assay: Cytotoxicity against HER-positive human SK-BR-3 cells assessed as inhibition of cell growth incubated for 48 hrs by MTT assay; type: functional, cell-based; settings: SK-BR-3, 48 h
[10] = Toxicity in nude mouse xenografted with human SK-BR-3 cells assessed as cellular necrosis at 8 micromol/kg, iv administered every 3 days for 14 days by H and E staining based analysis; type: organism-based; settings: in vivo, 336 h, dose 8 µmol/kg, time 14 day
[11] = Toxicity in nude mouse xenografted with human SK-BR-3 cells assessed as effect on alkaline phosphatase level at 8 micromol/kg, iv administered every 3 days for 14 days; type: organism-based; settings: in vivo, 336 h, dose 8 µmol/kg, time 14 day
[12] = Metabolic stability in Sprague-Dawley rat plasma assessed as half life incubated for 120 mins by LC-MS/MS analysis; type: ADME, cell-free
[13] = […] in nude mouse xenografted with human SK-BR-3 cells assessed as effect on alanine aminotransferase level at 8 micromol/kg, iv administered every 3 days for 14 days; type: organism-based; settings: in vivo, 336 h, dose 8 µmol/kg, time 14 day
SK-BR-3 [14] = assay: Induction of apoptosis in human SK-BR-3 cells assessed as late apoptotic cells at 1 uM incubated for 24 hrs by Annexin V-FITC/PI staining based flow cytometry analysis (Rvb= 5.02%); type: functional
[15] = Toxicity in nude mouse xenografted with human SK-BR-3 cells assessed as effect on globulin level at 8 micromol/kg, iv administered every 3 days for 14 days; type: organism-based; settings: in vivo, 336 h, dose 8 µmol/kg, time 14 day
SK-BR-3 [16] = assay: Induction of apoptosis in human SK-BR-3 cells assessed as live cells at 2 uM incubated for 24 hrs by Annexin V-FITC/PI staining based flow cytometry analysis (Rvb= 89.4%); type: functional
SK-BR-3 [17] = assay: Induction of cell cycle arrest in human SK-BR-3 cells assessed as accumulation of cells at S phase at 1 uM incubated for 24 hrs by flow cytometry analysis (reference value: 23%); type: functional
[18] = Cytotoxicity against human MCF-10A cells assessed as inhibition of cell growth incubated for 48 hrs by MTT assay; type: toxicity, cell-based
[19] = Toxicity in nude mouse xenografted with human SK-BR-3 cells assessed as spleen damage at 8 micromol/kg, iv administered every 3 days for 14 days by H and E staining based analysis; type: organism-based; settings: in vivo, 336 h, dose 8 µmol/kg, time 14 day
[20] = target: Epidermal growth factor receptor and ErbB2 (HER1 and HER2) (Homo sapiens) (UniProt P04626+P00533); assay: Inhibition of EGFR/HER2 heterodimerization in human SK-BR-3 cells at 10 uM preincubated for 4 hrs followed by EGF addition for 20 mins by immunoprecipitation analysis; type: cell-based; settings: time 260.0 min
[21] = Drug metabolism in human SK-BR-3 cells assessed as camptothecin release at 50 uM measured after 4 hrs by LC-MS/MS analysis; type: ADME, cell-based; settings: sk-br-3, 4 h
SK-BR-3 [22] = assay: Induction of apoptosis in human SK-BR-3 cells assessed as dead cells at 1 uM incubated for 24 hrs by Annexin V-FITC/PI staining based flow cytometry analysis (Rvb= 1.21%); type: functional
[23] = Toxicity in nude mouse xenografted with human SK-BR-3 cells assessed as effect on albumin level at 8 micromol/kg, iv administered every 3 days for 14 days; type: organism-based; settings: in vivo, 336 h, dose 8 µmol/kg, time 14 day
[24] = Toxicity in nude mouse xenografted with human SK-BR-3 cells assessed as inflammatory cell infiltration at 8 micromol/kg, iv administered every 3 days for 14 days by H and E staining based analysis; type: organism-based; settings: in vivo, 336 h, dose 8 µmol/kg, time 14 day
MDA-MB-231 = assay: Cytotoxicity against HER-negative human MDA-MB-231 cells assessed as inhibition of cell growth incubated for 48 hrs by MTT assay; type: functional, cell-based; settings: MDA-MB-231, 48 h
[25] = Toxicity in nude mouse xenografted with human SK-BR-3 cells assessed as reduction in body weight at 8 umol/kg, iv administered every 3 days for 14 days; type: organism-based; settings: in vivo, 336 h, dose 8 µmol/kg, time 14 day
NCI-N87 = assay: Cytotoxicity against HER-positive human NCI-N87 cells assessed as inhibition of cell growth incubated for 48 hrs by MTT assay; type: functional, cell-based; settings: NCI-N87, 48 h
[26] = Toxicity in nude mouse xenografted with human SK-BR-3 cells assessed as kidney damage at 8 micromol/kg, iv administered every 3 days for 14 days by H and E staining based analysis; type: organism-based; settings: in vivo, 336 h, dose 8 µmol/kg, time 14 day
[27] = Toxicity in nude mouse xenografted with human SK-BR-3 cells assessed as lung damage at 8 micromol/kg, iv administered every 3 days for 14 days by H and E staining based analysis; type: organism-based; settings: in vivo, 336 h, dose 8 µmol/kg, time 14 day
SK-BR-3 [28] = assay: Antitumor activity against human SK-BR-3 cells xenografted in nude mouse assessed as reduction in tumor growth at 8 umol/kg, iv administered every 3 days for 14 days and measured every 2 days; type: functional, organism-based; settings: dose 8.0 µmol/kg, time 14.0 day
SK-OV-3 = assay: Cytotoxicity against HER-positive human SK-OV-3 cells assessed as inhibition of cell growth incubated for 48 hrs by MTT assay; type: functional, cell-based; settings: SK-OV-3, 48 h

| SMILES | Activity [1] | Activity [2] | Activity [3] | Stability [4] | Kd [5] [nM] | Activity (SK-BR-3 [6]) [%] | Activity (SK-BR-3 [7]) [%] | Activity [8] | IC50 (SK-BR-3 [9]) [nM] | Activity [10] | Activity [11] | half-life [12] [min] | Activity [13] | Activity (SK-BR-3 [14]) [%] | Activity [15] | Activity (SK-BR-3 [16]) [%] | Activity (SK-BR-3 [17]) [%] | IC50 at 48 h [18] [µM] | Activity [19] | inhibition [20] | further results |
| --- | --- | --- | --- | --- | --- | --- | --- | --- | --- | --- | --- | --- | --- | --- | --- | --- | --- | --- | --- | --- | --- |
| CC[C@H](C)[C@H](NC(=O)[C@@H](N)CCCNC(=N)N)C(=O)N[C@@H](CCCCN)C(=O)N1CCC[C@H]1C(=O)N[C@@H](CCCNC(=N)N)C(=O)N[C@@H](CCCCN)C(=O)NCC(=O)N[C@@H](Cc1ccc(O)cc1)C(=O)N[C@H](C(=O)N[C@@H](CCCNC(=N)N)C(=O)NCC(=O)N[C@@H](CSSCCOC(=O)O[C@]1(CC)C(=O)OCc2c1cc1n(c2=O)Cc2cc3ccccc3nc2-1)C(=O)NCC(=O)N[C@@H](CSSCCOC(=O)O[C@]1(CC)C(=O)OCC2=C1C=C1c3nc4ccccc4cc3NC1C2=O)C(=O)NC(=O)C[C@H](NC(=O)CN)C(=O)N1CCC[C@H]1C(=O)N[C@@H](CC(N)=O)C(=O)N[C@@H](Cc1c[nH]c2ccccc12)C(=O)NCC(=O)N[C@@H](CCCNC(=N)N)C(=O)N[C@@H](CO)C(=O)N[C@@H](Cc1c[nH]c2ccccc12)C(=O)N[C@@H](Cc1ccc(O)cc1)C(=O)N[C@@H](CC(N)=O)C(=O)N[C@@H](CCC(N)=O)C(=O)N[C@@H](CCCNC(=N)N)C(=O)N[C@@H](Cc1ccccc1)C(=O)N[C@@H](CCCCN)C(N)=O)[C@@H](C)O (some centres not stated) | Active | Non-Toxic | Non-Toxic | Unstable | 437 | 49.2 | 14 | Non-Toxic | 120 | Non-Toxic | Non-Toxic | 15 | Non-Toxic | 8.5 | Non-Toxic | 44.7 | 43.45 | 17.1 | Non-Toxic | Active | Drug metabolism [21]: Metabolite_Detected; Activity (SK-BR-3 [22]): 0.49%; Activity [23]: Non-Toxic; Activity [24]: Non-Toxic; IC50 (MDA-MB-231): 7.72 µM; Activity [25]: Non-Toxic; IC50 (NCI-N87): 1780 nM; Activity [26]: Non-Toxic; Activity [27]: Non-Toxic; Activity (SK-BR-3 [28]): Active; IC50 (SK-OV-3): 1270 nM |
| CC[C@H](C)[C@H](NC(=O)[C@@H](N)CCCNC(=N)N)C(=O)N[C@@H](CCCCN)C(=O)N1CCC[C@H]1C(=O)N[C@@H](CCCNC(=N)N)C(=O)N[C@@H](CCCCN)C(=O)NCC(=O)N[C@@H](Cc1ccc(O)cc1)C(=O)N[C@H](C(=O)N[C@@H](CCCNC(=N)N)C(=O)NCC(=O)N[C@@H](CSSCCOC(=O)O[C@]1(CC)C(=O)OCc2c1cc1n(c2=O)Cc2cc3ccccc3nc2-1)C(=O)NCC(=O)N[C@@H](CC(N)=O)C(=O)N1CCC[C@H]1C(=O)N[C@@H](CC(N)=O)C(=O)N[C@@H](Cc1c[nH]c2ccccc12)C(=O)NCC(=O)N[C@@H](CCCNC(=N)N)C(=O)N[C@@H](CO)C(=O)N[C@@H](Cc1c[nH]c2ccccc12)C(=O)N[C@@H](Cc1ccc(O)cc1)C(=O)N[C@@H](CC(N)=O)C(=O)N[C@@H](CCC(N)=O)C(=O)N[C@@H](CCCNC(=N)N)C(=O)N[C@@H](Cc1ccccc1)C(=O)N[C@@H](CCCCN)C(N)=O)[C@@H](C)O (H-RIKPRKGYTRGC(S(CH2)2OCO2(CPT-20-yl))GNPNWGRSWYNQRFK-NH2) | Active | Non-Toxic | Non-Toxic | Unstable | 330 | 48.5 | 10.8 | Non-Toxic | 1470 | Non-Toxic | Non-Toxic | 15 | Non-Toxic | 7.25 | Non-Toxic | 49.1 | 39.2 | 23.9 | Non-Toxic | Active | Drug metabolism [21]: Metabolite_Detected; Activity (SK-BR-3 [22]): 0.26%; Activity [23]: Non-Toxic; Activity [24]: Non-Toxic; IC50 (MDA-MB-231): 7.6 µM; Activity [25]: Non-Toxic; IC50 (NCI-N87): 3290 nM; Activity [26]: Non-Toxic; Activity [27]: Non-Toxic; Activity (SK-BR-3 [28]): Active; IC50 (SK-OV-3): 4290 nM |
